Laboratory results from US10072014B2 (Janssen Pharmaceutica NV, priority 2014, dated 2018).

Biological target: T1, human mGlu2 receptor (Homo sapiens, UniProt Q14416)
T1 construct: expressed in transfected cells; host or cells: CHO cells
Assay: [35S]GTPγS binding assay, negative allosteric modulation of mGluR2
Assay type: biochemical
Conditions: maximal % inhibition relative to the control glutamate response (EC80 glutamate); read-out: GTPγS-hmGluR2 anGT Emax
From the text: The compounds provided in the present invention are negative allosteric modulators of mGluR2. These compounds appear to inhibit glutamate responses by binding to an allosteric site other than the glutamate binding site. The response of mGluR2 to a concentration of glutamate is decreased when compounds of Formula (I) are present. Compounds of Formula (I) are expected to have their effect substantially at mGluR2 by virtue of their ability to reduce the function of the receptor. The effects of negative allosteric modulators tested at mGluR2 using the [^35S]GTPγS binding assay method described below and which is suitable for the identification of such compounds, and more particularly the compounds according to Formula (I), are shown in Table 7.
1) [^35S]GTPγS Binding Assay
The [^35S]GTPγS binding assay is a functional membrane-based assay used to study G-protein coupled receptor (GPCR) function whereby incorporation of a non-hydrolysable form of GTP, [^35S]GTPγS (guanosine 5′-triphosphate, labelled with […] ^35S), is measured. The G-protein a subunit catalyzes the exchange of guanosine 5′-diphosphate (GDP) by guanosine triphosphate (GTP) and on activation of the GPCR by an agonist, [^35S]GTPγS, becomes incorporated and cannot be cleaved to continue the exchange cycle (Harper (1998) Current Protocols in Pharmacology 2.6.1-10, John Wiley & Sons, Inc.). […] Here we describe the use of the [^35S]GTPγS binding assay using membranes from cells transfected with the human mGlu2 receptor and adapted from Schaffhauser et al. (Molecular Pharmacology, 2003, […]) for the detection of the negative allosteric modulation (NAM) properties of the compounds of this invention.
CHO-cells were cultured to pre-confluence and stimulated with 5 mM butyrate for 24 h. Cells were then collected by scraping in PBS and cell suspension was centrifuged (10 min at 4000 RPM in benchtop centrifuge). Supernatant was discarded and pellet gently resuspended in 50 mM Tris-HCl, pH 7.4 by mixing with an Ultra Turrax homogenizer. The suspension was centrifuged at 12,400 RPM (Sorvall F14S-6x250Y) for 10 minutes and the supernatant discarded. The pellet was homogenized in 5 mM Tris-HCl, pH 7.4 using an Ultra Turrax homogenizer and centrifuged again (13,000 RPM, 20 min, 4° C.). The final pellet was resuspended in 50 mM Tris-HCl, pH 7.4 and stored at −80° C. in appropriate aliquots before use. Protein concentration was determined by the Bradford method (Bio-Rad, USA) with bovine serum albumin as standard.
[^35S]GTPγS Binding Assay
Measurement of mGluR2 negative allosteric modulatory activity of test compounds was performed as follows. Test compounds and glutamate were diluted in assay buffer containing 10 mM HEPES acid, 10 mM HEPES salt, pH 7.4, 100 mM NaCl, 3 mM MgCl2 and 10 μM GDP. Human mGlu2 receptor-containing membranes were thawed on ice and diluted in assay buffer supplemented with 18 μg/ml saponin. Membranes were pre-incubated with compound together with a predefined (˜EC80) concentration of glutamate (60 μM) for 30 min at 30° C. After addition of [^35S]GTPγS (f.c. 0.1 nM), assay mixtures were shaken briefly and further incubated to allow [^35S]GTPγS incorporation on activation (30 minutes, 30° C.). Final assay mixtures contained 7 μg of membrane protein in 10 mM HEPES acid, 10 mM HEPES salt, pH 7.4, 100 mM NaCl, 3 mM MgCl2, 10 μM GDP and 10 μg/ml saponin. Total reaction volume was 200 μl. Reactions were terminated by rapid filtration through Unifilter-96 GF/B plates (Perkin Elmer, Massachusetts, USA) using a 96-well filtermate universal harvester. Filters were washed 6 times with ice-cold 10 mM NaH2PO4/10 mM Na2HPO4, pH 7.4. Filters were then air-dried, and 30 μl of liquid scintillation cocktail (Microscint-O) was added to each well. Membrane-bound radioactivity was counted in a Topcount.
The concentration-response curves of representative compounds of the present invention were generated using the Lexis software interface (developed at J&J). […]

T1 sequence (Q14416 19-872): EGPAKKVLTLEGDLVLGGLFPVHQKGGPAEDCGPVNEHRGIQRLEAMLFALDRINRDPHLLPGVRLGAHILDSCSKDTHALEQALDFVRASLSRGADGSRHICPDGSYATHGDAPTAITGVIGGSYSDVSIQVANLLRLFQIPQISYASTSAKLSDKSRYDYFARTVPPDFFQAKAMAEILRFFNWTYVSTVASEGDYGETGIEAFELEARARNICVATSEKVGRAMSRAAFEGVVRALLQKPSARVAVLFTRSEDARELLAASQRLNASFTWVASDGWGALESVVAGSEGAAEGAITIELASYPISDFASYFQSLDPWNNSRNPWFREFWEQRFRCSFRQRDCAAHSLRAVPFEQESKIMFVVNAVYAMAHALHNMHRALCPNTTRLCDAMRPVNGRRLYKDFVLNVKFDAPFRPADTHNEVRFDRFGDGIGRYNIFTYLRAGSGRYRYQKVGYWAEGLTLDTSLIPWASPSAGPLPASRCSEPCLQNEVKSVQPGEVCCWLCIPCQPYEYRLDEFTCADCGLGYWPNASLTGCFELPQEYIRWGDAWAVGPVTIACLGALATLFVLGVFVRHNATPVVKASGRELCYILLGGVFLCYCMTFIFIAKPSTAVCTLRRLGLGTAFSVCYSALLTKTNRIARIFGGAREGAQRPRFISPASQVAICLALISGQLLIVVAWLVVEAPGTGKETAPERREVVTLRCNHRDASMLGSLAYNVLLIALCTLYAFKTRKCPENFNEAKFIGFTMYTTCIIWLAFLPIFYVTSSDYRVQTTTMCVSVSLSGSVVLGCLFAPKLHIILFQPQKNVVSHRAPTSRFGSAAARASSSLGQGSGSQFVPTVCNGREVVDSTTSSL

| SMILES | Emax [%] |
| --- | --- |
| Cc1nc(-c2cnn3c2C(=O)N(c2ccc(C(F)(F)F)cc2)C[C@@H]3C)c[nH]1 [Compound 4] | 104 |
| CC(C)c1nc(-c2cnn3c2C(=O)N(c2ccc(C(F)(F)F)c(Cl)c2)C[C@@H]3C)c[nH]1 [Compound 26] | 111 |
| C[C@H]1CN(c2ccc(C(F)(F)F)c(Cl)c2)C(=O)c2c(-c3c[nH]c(C4CC4)n3)cnn21 [Compound 25] | 106 |
| Cc1[nH]c(-c2ccc(N)nc2)nc1-c1cnn2c1C(=O)N(c1ccc(C(F)(F)F)cc1)C[C@@H]2C [Compound 16] | 108 |
| C[C@H]1CN(c2ccc(C(F)(F)F)c(Cl)c2)C(=O)c2c(-c3c[nH]c(-c4ccc(N)nc4)n3)cnn21 [Compound 33] | 106 |
| Cc1nc(C)c(-c2cnn3c2C(=O)N(c2ccc(C(F)(F)F)c(Cl)c2)C[C@@H]3C)[nH]1.Cl [Compound 30] | 109 |
| C[C@H]1CN(c2ccc(C(F)(F)F)c(Cl)c2)C(=O)c2c(-c3c[nH]c(C(N)=O)n3)cnn21 [Compound 31] | 107 |

Same assay, conditions: membranes from CHO cells transfected with human mGlu2 receptor; glutamate 60 μM (~EC80); read-out: GTPγS-hmGluR2 anGT pIC50 (converted)

| SMILES | IC50 [nM] |
| --- | --- |
| Cc1nc(-c2cnn3c2C(=O)N(c2ccc(C(F)(F)F)cc2)C[C@@H]3C)c[nH]1 [Compound 4] | 25.7 |
| CC(C)c1nc(-c2cnn3c2C(=O)N(c2ccc(C(F)(F)F)c(Cl)c2)C[C@@H]3C)c[nH]1 [Compound 26] | 2.69 |
| C[C@H]1CN(c2ccc(C(F)(F)F)c(Cl)c2)C(=O)c2c(-c3c[nH]c(C4CC4)n3)cnn21 [Compound 25] | 2 |
| Cc1[nH]c(-c2ccc(N)nc2)nc1-c1cnn2c1C(=O)N(c1ccc(C(F)(F)F)cc1)C[C@@H]2C [Compound 16] | 186 |
| C[C@H]1CN(c2ccc(C(F)(F)F)c(Cl)c2)C(=O)c2c(-c3c[nH]c(-c4ccc(N)nc4)n3)cnn21 [Compound 33] | 16.2 |
| Cc1nc(C)c(-c2cnn3c2C(=O)N(c2ccc(C(F)(F)F)c(Cl)c2)C[C@@H]3C)[nH]1.Cl [Compound 30] | 6.31 |
| C[C@H]1CN(c2ccc(C(F)(F)F)c(Cl)c2)C(=O)c2c(-c3c[nH]c(C(N)=O)n3)cnn21 [Compound 31] | 10.2 |

Tested on: Wiga Wistar rats
Assay: Reversal of LY-404039-induced decrease of palpebral opening in apomorphine-challenged rats
Assay type: in vivo
Conditions: Rattus norvegicus, PO, criterion: cumulative palpebral opening score >26, read-out: ED50 APO LY-404039
Protocol: B) In Vivo Pharmacology 1) Reversal of LY-404039-induced Decrease of Palpebral Opening in Apomorphine-challenged Rats.
Male Wiga Wistar rats (Crl:WI; Charles River Germany; 220±40 g) were housed under standard laboratory conditions (21±2° C.; 50-65% relative humidity; light-dark cycle set at 12 h; lights on at 6.00 h) and fasted overnight prior to the start of the experiments (tap water remained available ad libitum). During the test period, they were housed in individual cages. Palpebral opening was scored every 5 min over the first hour after injection of apomorphine (1.0 mg/kg, i.v.) in animals either pretreated or not pretreated with LY-404039 (2.5 mg/kg, s.c.) at 1 h prior to the apomorphine injection. The animals were also pretreated with test compound or solvent at a predefined interval before apomorphine challenge. The score system was: (5) exophthalmos, (4) wide open, (3) open for three-quarters, (2) half open, (1) open for one-quarter, (0) closed. The scores for palpebral opening were cumulated over the 60-min observation period. A cumulative palpebral opening score>26 was selected for drug-induced reversal of the LY-404039-induced decrease of palpebral opening (occurrence in 3.2% of control animals pretreated with LY-404039 (n=154) versus in 99.5% of control rats not pretreated with LY-404039 (n=6335)). […]

| SMILES | ED50 [mg/kg] |
| --- | --- |
| C[C@H]1CN(c2ccc(C(F)(F)F)c(Cl)c2)C(=O)c2c(-c3c[nH]c(C4CC4)n3)cnn21 [Compound 25] | 0.79 |

Tested on: rats
Assay: Reversal of the effect of the mGluR2 PAM JNJ-42153605-induced inhibition of scopolamine-induced hyperlocomotion
Assay type: in vivo
Conditions: Rattus norvegicus, PO, criterion for reversal: total distance >1500 cm, read-out: ED50 SCOP JNJ-42153605
Protocol: 2) Reversal of the Effect of the mGluR2 PAM JNJ-42153605-induced Inhibition of Scopolamine-induced Hyperlocomotion Apparatus
Motor activity was measured in microprocessor-based motor activity arenas (closed gray PVC cylinders with a height of 39 cm and a diameter of 31 cm). Each arena was placed on an infrared LED (8×8 LEDs) lit box (white PVC squared box; 40×40 cm^2; height 12.5 cm. An infrared-sensitive tube camera and a white light source were mounted to the ceiling above the observation chamber to track the animal. The total distance traveled (cm) was recorded and analyzed using the Noldus Ethovision XT Video Tracking System (Version 7.0.418; Noldus, Wageningen, The Netherlands). The intensity of the light within the activity cages (measured in the centre at the level of the floor) ranged between 4 and 8 LUX.
The rats were pretreated with test compound or vehicle at 60 min before the start of the activity recordings and placed into individual cages. The rats were challenged with JNJ-42153605 (3-(cyclopropylmethyl)-7-(4-phenylpiperidin-1-yl)-8-(trifluoromethyl)-[1,2,4]triazolo[4,3-a]pyridine; WO2010/130424; Cid et al. J. Med. Chem. 2012, 55, 8770-8789) (20 mg/kg, i.v.) 30 min before the start of the activity recording combined with scopolamine (0.16 mg/kg, i.v.) just before the start of the activity measurements. Immediately after the injection of scopolamine, the rats were placed into the activity monitors and total distance traveled over the first 30 min was measured.
Solvent-pretreated Control Rats.
Animals receiving the combination of JNJ-42153605 and scopolamine (n=433) almost always traveled a distance of less than 1500 cm (<1500 cm) (only 2.5% of the control rats traveled a distance of more than 1500 cm (>1500 cm)). On the other hand, animals challenged with scopolamine alone (n=215) always traveled a total distance of more than 1500 cm (>1500 cm) and almost always (in 95.8% of the rats) a distance of more than 4400 cm (>4400 cm). […] For reversal of the inhibitory effect of JNJ-42153605 on the scopolamine-induced hyperlocomotion, the following all-or-none criteria were adopted: (1) reversal: total distance>1500 cm.

| SMILES | ED50 [mg/kg] |
| --- | --- |
| Cc1nc(-c2cnn3c2C(=O)N(c2ccc(C(F)(F)F)cc2)C[C@@H]3C)c[nH]1 [Compound 4] | > 2.5 |
| CC(C)c1nc(-c2cnn3c2C(=O)N(c2ccc(C(F)(F)F)c(Cl)c2)C[C@@H]3C)c[nH]1 [Compound 26] | 1.99 |
| C[C@H]1CN(c2ccc(C(F)(F)F)c(Cl)c2)C(=O)c2c(-c3c[nH]c(C4CC4)n3)cnn21 [Compound 25] | 0.726 |
| Cc1[nH]c(-c2ccc(N)nc2)nc1-c1cnn2c1C(=O)N(c1ccc(C(F)(F)F)cc1)C[C@@H]2C [Compound 16] | > 0.63 |
| C[C@H]1CN(c2ccc(C(F)(F)F)c(Cl)c2)C(=O)c2c(-c3c[nH]c(-c4ccc(N)nc4)n3)cnn21 [Compound 33] | > 0.63 |
| Cc1nc(C)c(-c2cnn3c2C(=O)N(c2ccc(C(F)(F)F)c(Cl)c2)C[C@@H]3C)[nH]1.Cl [Compound 30] | 1.99 |
| C[C@H]1CN(c2ccc(C(F)(F)F)c(Cl)c2)C(=O)c2c(-c3c[nH]c(C(N)=O)n3)cnn21 [Compound 31] | > 0.63 |

Tested on: not given
Assay: not given
Conditions: not given

| SMILES | melting point [°C] |
| --- | --- |
| Cc1nc(-c2cnn3c2C(=O)N(c2ccc(C(F)(F)F)cc2)C[C@@H]3C)c[nH]1 [Compound 4] | 167.9 |
| CC(C)c1nc(-c2cnn3c2C(=O)N(c2ccc(C(F)(F)F)c(Cl)c2)C[C@@H]3C)c[nH]1 [Compound 26] | 160.38 |
| Cc1[nH]c(-c2ccc(N)nc2)nc1-c1cnn2c1C(=O)N(c1ccc(C(F)(F)F)cc1)C[C@@H]2C [Compound 16] | 215.62 |
| C[C@H]1CN(c2ccc(C(F)(F)F)c(Cl)c2)C(=O)c2c(-c3c[nH]c(-c4ccc(N)nc4)n3)cnn21 [Compound 33] | 286.55 |
| Cc1nc(C)c(-c2cnn3c2C(=O)N(c2ccc(C(F)(F)F)c(Cl)c2)C[C@@H]3C)[nH]1.Cl [Compound 30] | 270.45 |
| C[C@H]1CN(c2ccc(C(F)(F)F)c(Cl)c2)C(=O)c2c(-c3c[nH]c(C(N)=O)n3)cnn21 [Compound 31] | 269.95 |
